From patent publication US20070238761A1, “Use of pyridoxamine to treat and/or prevent disease processes” (Vanderbilt University, priority 2005, published 2007)

Experiments:
[1] = system: Human glomerular visceral epithelial cells (podocytes); assay: Cisplatin-induced podocyte cell death, viability by Rapid Cell Proliferation Kit; assay type: cell-based; details: 22 hours of treatment; RPMI medium with 1% FBS; FIG. 4
Description: Human glomerular visceral epithelial cells (podocytes) were plated at 8,000 cells/well (96-well plate) and incubated for 24 hours in RPMI medium supplemented with 1% FBS. Following this incubation cells were treated as indicated without changing the medium. The treatment continued for 22 hours and cell viability was measured using Rapid Cell Proliferation Kit (CALBIOCHEM®), a unit of EMD Biosciences, Inc. San Diego, Calif., United States of America).

[2] = system: 8-F2-isoprostane (8-iso-PGF2) in the kidney; assay: Carbon tetrachloride rat model of oxidative stress, 8-F2-isoprostane in kidney by GC-MS; assay type: in vivo; details: CCl4 vs. CCl4+PM, p=0.066, not statistically significant; FIG. 5
Description: FIG. 5 is a plot depicting the effect of PM administration on the levels of a marker of oxidative stress (8-F2-lsoP) in the carbon tetrachloride (CCl4) rat model disclosed herein as determined by gas-chromatography/mass-spectrometry (GC-MS).
Based on the results of the in vitro experiments disclosed herein, it was hypothesized that PM might reduce oxidative stress in the kidney in vivo. This hypothesis was evaluated using the carbon tetrachloride rat model of oxidative stress (see Kadiiska et al. (2005) Free Radic Biol Med 38:698-710). The effect of PM was determined by measuring the levels of an oxidative stress marker, 8-F2-isoprostane (8-iso-PGF2) in the kidney using gas-chromatography/mass-spectrometry (see Morrow et al. (1999) Methods Enzymol 300:3-12).

[3] = system: gentamicin and glycerol rat models of ARF; assay: Gentamicin and glycerol rat models of ARF treated with PM; assay type: in vivo, Sprague-Dawley rats; details: ARF+PM group compared to ARF group; PM 180 mg/day/kg body weight in drinking water
Text: The gentamicin and the glycerol rat models of ARF. There are several animal models of ARF, each having its specific advantages and limitations (see e.g., Bellomo et al. (2004) Group Crit Care 8:R204-12). Two such models are the gentamicin and the glycerol models. […] Importantly, the gentamicin and the glycerol models are highly relevant, representing two of the major clinical causes of ARF: antibiotic toxicity and rhabdomyolosis, respectively (Bellomo et al. (2004) Group Crit Care 8:R204-12). Examining the effects of PM in two different models also helps to minimize possible model-specific adverse effects.
The primary outcome measured is serum creatinine level at the end of PM treatment. […]
Two-month-old male Sprague-Dawley rats (250-300 g) are housed individually in metabolic cages. […] Animals are fed standard powdered stock ration, and their body weights are monitored daily. […]
For PM experiments, rats are randomized into 4 groups based on their baseline serum creatinine levels: (a) the Control group (no ARF is induced); (b) the PM group (no ARF is induced, but PM is given in drinking water); (c) the ARF group; and (d) the ARF+PM group. The experiment is terminated when the serum creatinine in the ARF group reaches its maximum level as determined in the model optimization studies described hereinabove. […]

[4] = system: urinary oxalate excretion; assay: Ethylene glycol rat model of experimental hyperoxaluria with PM in drinking water; assay type: in vivo, Sprague-Dawley male rats
Description: FIGS. 6A and 6B are graphs depicting the effect of PM treatment on urinary oxalate excretion in animals with experimental hyperoxalura. Sprague-Dawley male rats (49-52 days old) were randomized on Day 1 to receive either ethylene glycol (0.75% v/v in drinking water (450 mg/day/kg body wt.); EG group) or no treatment (Control group). After Day 14, animals within each group were pair-matched according to their oxalate level. One member of each pair was then randomly assigned to receive PM (3 mg/ml or 180 mg/day/kg body wt.) either in drinking water (PM group) or in 0.75% ethylene glycol (EG+PM group). Urine samples were collected under toluene (to inhibit bacteria growth) in 50 ml tubes with hydrochloric acid to minimize spontaneous breakdown of urinary ascorbic acid to oxalate. Urinary oxalate was measured as described under Methods. Each symbol represents mean value±S.E. (n=5); at the time points indicated by asterisks, differences between the EG group and the EG+PM group were statistically significant (p<0.05). The data points on the graphs correspond to the following: ●—Control group; ▪—EG group; —PM group; ⋄—+EG+PM group.
In FIG. 6A, the results of PM given continuously starting from Day 14 are presented.
In FIG. 6B, the results for a separate experiment in which PM treatment was started on Day 14 and was discontinued on Day 28 are presented. In this experiment, the elevated levels of oxalate excretion in Control group on Day 3 are most likely related to animal adaptation. Note that the oxalate levels went down and leveled off before the beginning of PM treatment.
Ethylene glycol model of hyperoxaluria and pyridoxamine treatment. An established rat model of experimental hyperoxaluria, the ethylene glycol (EG) model (see e.g., Lyon et al. (1996) Invest Uro14:143-151; Khan (1997) World J Urol 05:236-243) was employed. […] Because ethylene glycol is converted to glycolaldehyde, an intermediate in glyoxylate pathway, its administration results in increased urinary oxalate levels (Lyon et al. (1996) Invest Urol 4:143-151; Khan (1997) World J Urol 05:236-243). […]
For uniform administration of EG and PM, water supply to all animals was limited to 45 ml/day. […] The length of treatment was determined based on the fact that after about 35 days of experimental hyperoxaluria rats may have some evidence of microscopic nephrolithiasis, but their renal function remains normal (Khan (1997) World J Urol 05:236-243). […]

[5] = system: collagen IV; assay: Formation of CML on collagen IV coated plates incubated with glucose (ELISA, anti-CML antibody); assay type: biochemical; details: 5 mM and 30 mM glucose; 200 mM sodium phosphate buffer, pH 7.5, 37° C., 40 days; FIG. 1B
Description: The secondary antibody used in the assay was an alkaline phosphatase conjugated goat anti-rabbit IgG from Sigma-Aldrich Co. (St. Louis, Mo., United States of America). Incubations were carried out in 200 mM sodium phosphate buffer, pH 7.5 at 37° C. for 40 days. […]

[6] = system: BSA-Amadori glycation intermediate; assay: Conversion of BSA-Amadori glycation intermediate to CML, measured with anti-CML antibody; assay type: biochemical; details: 0.1, 1, 15 mM PM; 200 mM sodium phosphate buffer, pH 7.5, 37° C.; FIG. 1A
Description: FIG. 1A is a graph depicting the conversion of Amadori intermediate to CML measured using anti-CML antibody.
Isolated BSA-Amadori glycation intermediate was formed at diabetic (30 mM) concentration of glucose. The conversion of Amadori intermediate to the AGE N^ε-carboxymethyllysine (CML) was measured using an anti-CML antibody.

[7] = system: diabetic rat model; details: similar or higher PM doses than 180 mg/day/kg body wt.; long-term; Degenhardt et al. 2002, Stitt et al. 2002; cited from earlier work
[8] = Reactive PM amino groups in incubations with ethylene glycol (TNBS assay); assay type: physicochemical; details: 24 hours at room temperature
Description: Effect of pyridoxamine treatment on urinary oxalate excretion. […] With the proposed experimental design, interference between PM and ethylene glycol might have been possible because both were administered in drinking water. If significant spontaneous oxidation of ethylene glycol occurs in solution, the resulting carbonyl moieties might react with the PM amino group. To address this question, the amount of reactive PM amino groups was measured in incubations with ethylene glycol using TNBS assay (Spadaro et al. (1979) Anal Biochem 96:317-321).

Cc1ncc(CO)c(CN)c1O [PM, 4-(aminomethyl)-5-(hydroxymethyl)-2-methyl-pyridin-3-ol]
podocyte viability under cisplatin treatment [1]: protected cell viability in a concentration-dependent manner | level of the isoprostane marker (8-F2-isoprostane) in the kidney [2]: tendency toward lowering the level of the isoprostane marker | Creatinine levels at the end of experiment (primary outcome) [3]: envisioned to be significantly lower | degree of renal tubular pathology at the end of experiment (secondary outcome) [3]: envisioned to be lower | urinary oxalate excretion ([4]; EG+PM group vs EG group, PM 180 mg/day/kg body wt. in drinking water continuously from Day 14, FIG. 6A): dramatic and sustained decrease in urinary oxalate excretion | urinary oxalate excretion after PM was discontinued ([4]; PM started Day 14, discontinued Day 28, FIG. 6B): increase in urinary oxalate excretion to the levels found in untreated hyperoxaluric animals | weight gain ([4]; all experimental groups, duration of the experiment, PM 180 mg/day/kg body wt.): No significant differences in weight gain | adverse effects ([4]; all experimental groups, PM 180 mg/day/kg body wt.): no adverse effects | formation of CML on collagen IV [5]: inhibited the formation of CML on collagen IV | conversion of the BSA-Amadori glycation intermediate to BSA-CML [6]: inhibited the conversion of the BSA-Amadori glycation intermediate to BSA-CML | therapeutic effect [7]: had therapeutic effects | change in reactive PM amino groups in incubations with ethylene glycol [8]: No change in amino groups was detected
